Converted amounts (≈) assume the structure as drawn.
Assays:
CYP3A4 [1] = molecular target: T1, CYP3A4 (Homo sapiens, UniProt P08684); test: Time dependent inhibition of CYP3A4 in human liver microsomes using midazolam as substrate assessed as 1'-OH midazolam metabolite formation at 50 uM preincubated for 30 mins in presence of NADPH followed by substrate addition and measured after 15 mins by HPLC-MS/MS analysis relative to control; type: ADME, Microsome; details: probe midazolam, time 45 min, read-out: TDI
CYP3A4 [2] = molecular target: T1, CYP3A4; test: Induction of CYP3A4 in human hepatocytes assessed as maximum activation in mRNA level at 10 uM incubated for 24 hrs by RT-qPCR analysis relative to control; type: ADME, cell-based, Hepatocyte; details: read-out: max activation
CYP3A4 [3] = molecular target: T1, CYP3A4; test: Induction of CYP3A4 in human hepatocytes assessed as fold increase in mRNA level at 10 uM incubated for 24 hrs by RT-qPCR analysis relative to control; type: ADME, cell-based, Hepatocyte; details: read-out: FC
[4] = molecular target: T2, Non-receptor tyrosine-protein kinase TYK2 (Homo sapiens, UniProt P29597); test: Inhibition of TYK2 in human T-blast cells assessed as IL-12 induced STAT4 phosphorylation at Tyr694 residue preincubated for 30 mins followed by IL-12 stimulation and measured after 20 mins by AlphaScreen assay; type: cell-based, T-blast cell
[5] = Metabolic stability in human hepatocytes assessed as intrinsic clearance for unbound fraction of drug; type: ADME, cell-based, Hepatocyte
[6] = molecular target: T2, Non-receptor tyrosine-protein kinase TYK2; test: Inhibition of recombinant human N-terminal His-tagged TYK2 JH2 domain (577 to 870 residues) expressed in Sf9 cells using N-(2-(2-(2-((3-(5-acetamido-3-(3-(N,N-dimethylsulfamoyl)phenyl)-1H-pyrrolo[2,3-c]pyridin-1-yl)propyl)amino)-2-oxoethoxy)ethoxy)ethyl)-2',7'-difluoro-3',6'-dihydroxy-3-oxo-3H-spiro[isobenzofuran-1,9'-xanthene]-5-carboxamide trifluoroacetate as substrate incubated for 60 mins by TR-FRET assay
[7] = Thermodynamic solubility in PBS at pH 7.4; type: physicochemical; details: read-out: Therm_solubility
[8] = molecular target: T3, Tyrosine-protein kinase JAK1 (Homo sapiens, UniProt P23458); test: Inhibition of JAK1 in human TF-1 cells assessed as reduction in IL-6 induced STAT3 phosphorylation at Tyr705 residue preincubated for 30 mins followed by IL-6 stimulation and measured after 30 mins by AlphaScreen assay; type: cell-based
[9] = Volume of distribution at steady state in rat at 1 mg/kg, iv or 1 mg/kg,po; type: ADME, organism-based; details: in vivo, read-out: Vdss
[10] = molecular target: Tyrosine-protein kinase JAK2 (Homo sapiens, UniProt O60674); test: Inhibition of JAK2 in human UT7 cells assessed as reduction in erythropoietin induced STAT5 phosphorylation preincubated for 30 mins followed by erythropoietin stimulation and measured after 20 mins by AlphaScreen assay; type: cell-based
[11] = Half life in rat at 1 mg/kg, iv or 1 mg/kg,po; type: ADME, organism-based; details: in vivo
[12] = molecular target: T4, Tyrosine-protein kinase JAK3 (Homo sapiens, UniProt P52333); test: Inhibition of JAK3 in human T-blast cells assessed as reduction in IL-2 induced STAT5 phosphorylation preincubated for 30 mins followed by IL-2 stimulation and measured after 20 mins by AlphaScreen assay; type: cell-based, T-blast cell
T4 sequence (P52333 whole entry): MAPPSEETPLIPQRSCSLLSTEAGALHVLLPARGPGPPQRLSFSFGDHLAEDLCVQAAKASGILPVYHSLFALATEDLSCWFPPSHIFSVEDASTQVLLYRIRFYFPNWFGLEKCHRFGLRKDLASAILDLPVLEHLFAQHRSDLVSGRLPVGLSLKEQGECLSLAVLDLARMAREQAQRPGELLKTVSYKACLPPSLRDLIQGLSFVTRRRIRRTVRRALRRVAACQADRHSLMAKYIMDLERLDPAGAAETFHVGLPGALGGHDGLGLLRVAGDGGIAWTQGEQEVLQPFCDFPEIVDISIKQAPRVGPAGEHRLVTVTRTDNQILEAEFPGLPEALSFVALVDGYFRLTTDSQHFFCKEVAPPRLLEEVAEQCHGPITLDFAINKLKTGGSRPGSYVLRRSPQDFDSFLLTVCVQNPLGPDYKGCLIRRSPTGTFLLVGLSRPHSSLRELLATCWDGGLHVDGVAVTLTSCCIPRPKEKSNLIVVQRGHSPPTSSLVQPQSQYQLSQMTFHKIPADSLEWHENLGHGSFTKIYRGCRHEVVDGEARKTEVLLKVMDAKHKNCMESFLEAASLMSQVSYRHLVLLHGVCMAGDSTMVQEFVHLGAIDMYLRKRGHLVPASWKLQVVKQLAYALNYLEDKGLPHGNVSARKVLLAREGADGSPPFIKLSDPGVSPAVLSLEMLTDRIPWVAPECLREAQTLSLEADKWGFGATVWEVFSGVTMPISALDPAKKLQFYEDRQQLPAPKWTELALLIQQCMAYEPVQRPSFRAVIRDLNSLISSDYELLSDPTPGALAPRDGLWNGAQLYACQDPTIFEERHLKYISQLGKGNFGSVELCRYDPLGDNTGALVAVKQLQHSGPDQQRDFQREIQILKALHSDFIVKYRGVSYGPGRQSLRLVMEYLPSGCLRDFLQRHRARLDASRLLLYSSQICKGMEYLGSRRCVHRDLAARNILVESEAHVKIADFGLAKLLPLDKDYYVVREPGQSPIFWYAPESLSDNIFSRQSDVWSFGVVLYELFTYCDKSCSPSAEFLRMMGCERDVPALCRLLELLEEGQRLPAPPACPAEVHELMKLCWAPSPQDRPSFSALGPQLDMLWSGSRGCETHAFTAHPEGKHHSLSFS

[13] = Unbound clearance in rat blood at 1 mg/kg, iv or 1 mg/kg,po; type: ADME, organism-based; details: in vivo
[14] = Oral bioavailability in rat at 1 mg/kg; type: ADME, organism-based; details: in vivo
[15] = molecular target: T2, Non-receptor tyrosine-protein kinase TYK2; test: Inhibition of TYK2 JH1 domain (unknown origin) by TR-FRET assay
[16] = molecular target: T3, Tyrosine-protein kinase JAK1; test: Inhibition of JAK1 JH1 domain (unknown origin) by TR-FRET assay
[17] = Selectivity ratio of IC50 for inhibition of JAK1 JH1 domain (unknown origin) to IC50 for inhibition of recombinant human N-terminal His-tagged TYK2 JH2 domain (577 to 870 residues) expressed in Sf9 cells
[18] = Selectivity ratio of IC50 for inhibition of TYK2 JH1 domain (unknown origin) to IC50 for inhibition of recombinant human N-terminal His-tagged TYK2 JH2 domain (577 to 870 residues) expressed in Sf9 cells
[19] = Oral bioavailability in dog at 0.5 mg/kg; type: ADME, organism-based, Canis lupus familiaris; details: in vivo
[20] = Unbound clearance in cynomolgus monkey blood at 0.5 mg/kg, iv; type: ADME, organism-based, Macaca fascicularis; details: in vivo
[21] = Metabolic stability in dog hepatocytes assessed as intrinsic clearance for unbound fraction of drug; type: ADME, cell-based, Canis lupus familiaris, Hepatocyte
[22] = Half life in cynomolgus monkey at 0.5 mg/kg, iv; type: ADME, organism-based, Macaca fascicularis; details: in vivo
[23] = Unbound clearance in dog blood at 0.5 mg/kg, iv; type: ADME, organism-based, Canis lupus familiaris; details: in vivo
[24] = Half life in dog at 0.5 mg/kg, iv; type: ADME, organism-based, Canis lupus familiaris; details: in vivo
[25] = AUC (0 to infinity) in dog at 0.5 mg/kg,po; type: ADME, organism-based, Canis lupus familiaris; parameters: dose 0.5 mg/kg, route po; details: in vivo
[26] = Metabolic stability in monkey hepatocytes assessed as intrinsic clearance for unbound fraction of drug; type: ADME, cell-based, Macaca mulatta, Hepatocyte; details: rhesus monkey

Tyrosine-protein kinase JAK2, sequence (O60674 whole entry): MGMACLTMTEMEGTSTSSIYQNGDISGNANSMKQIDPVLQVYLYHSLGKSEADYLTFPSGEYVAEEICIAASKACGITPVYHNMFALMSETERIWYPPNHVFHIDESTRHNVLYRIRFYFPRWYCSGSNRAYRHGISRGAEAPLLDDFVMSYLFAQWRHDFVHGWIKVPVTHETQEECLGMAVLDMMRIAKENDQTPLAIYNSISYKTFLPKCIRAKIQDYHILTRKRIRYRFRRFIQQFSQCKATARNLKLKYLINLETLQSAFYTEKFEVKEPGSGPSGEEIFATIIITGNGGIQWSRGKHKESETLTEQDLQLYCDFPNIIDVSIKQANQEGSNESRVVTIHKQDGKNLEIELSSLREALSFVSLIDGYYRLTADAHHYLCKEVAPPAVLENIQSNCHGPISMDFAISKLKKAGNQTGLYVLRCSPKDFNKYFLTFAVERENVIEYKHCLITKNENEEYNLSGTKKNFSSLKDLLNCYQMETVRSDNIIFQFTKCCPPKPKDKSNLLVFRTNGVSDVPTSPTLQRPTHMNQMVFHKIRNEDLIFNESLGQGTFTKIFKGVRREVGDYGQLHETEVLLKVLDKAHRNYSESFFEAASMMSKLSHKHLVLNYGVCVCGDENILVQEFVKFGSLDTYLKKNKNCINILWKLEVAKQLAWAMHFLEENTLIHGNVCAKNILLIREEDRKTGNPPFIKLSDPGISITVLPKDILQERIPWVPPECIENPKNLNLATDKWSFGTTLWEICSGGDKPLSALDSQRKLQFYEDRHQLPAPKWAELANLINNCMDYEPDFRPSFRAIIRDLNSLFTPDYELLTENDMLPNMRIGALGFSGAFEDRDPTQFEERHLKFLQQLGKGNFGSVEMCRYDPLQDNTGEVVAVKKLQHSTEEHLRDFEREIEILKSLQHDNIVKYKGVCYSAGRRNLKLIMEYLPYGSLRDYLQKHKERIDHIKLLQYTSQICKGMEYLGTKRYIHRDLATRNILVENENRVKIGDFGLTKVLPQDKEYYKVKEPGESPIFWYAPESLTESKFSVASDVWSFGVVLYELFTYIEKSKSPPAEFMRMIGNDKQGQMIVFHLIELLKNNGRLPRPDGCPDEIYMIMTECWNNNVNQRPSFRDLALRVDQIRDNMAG
T3 sequence (P23458 whole entry): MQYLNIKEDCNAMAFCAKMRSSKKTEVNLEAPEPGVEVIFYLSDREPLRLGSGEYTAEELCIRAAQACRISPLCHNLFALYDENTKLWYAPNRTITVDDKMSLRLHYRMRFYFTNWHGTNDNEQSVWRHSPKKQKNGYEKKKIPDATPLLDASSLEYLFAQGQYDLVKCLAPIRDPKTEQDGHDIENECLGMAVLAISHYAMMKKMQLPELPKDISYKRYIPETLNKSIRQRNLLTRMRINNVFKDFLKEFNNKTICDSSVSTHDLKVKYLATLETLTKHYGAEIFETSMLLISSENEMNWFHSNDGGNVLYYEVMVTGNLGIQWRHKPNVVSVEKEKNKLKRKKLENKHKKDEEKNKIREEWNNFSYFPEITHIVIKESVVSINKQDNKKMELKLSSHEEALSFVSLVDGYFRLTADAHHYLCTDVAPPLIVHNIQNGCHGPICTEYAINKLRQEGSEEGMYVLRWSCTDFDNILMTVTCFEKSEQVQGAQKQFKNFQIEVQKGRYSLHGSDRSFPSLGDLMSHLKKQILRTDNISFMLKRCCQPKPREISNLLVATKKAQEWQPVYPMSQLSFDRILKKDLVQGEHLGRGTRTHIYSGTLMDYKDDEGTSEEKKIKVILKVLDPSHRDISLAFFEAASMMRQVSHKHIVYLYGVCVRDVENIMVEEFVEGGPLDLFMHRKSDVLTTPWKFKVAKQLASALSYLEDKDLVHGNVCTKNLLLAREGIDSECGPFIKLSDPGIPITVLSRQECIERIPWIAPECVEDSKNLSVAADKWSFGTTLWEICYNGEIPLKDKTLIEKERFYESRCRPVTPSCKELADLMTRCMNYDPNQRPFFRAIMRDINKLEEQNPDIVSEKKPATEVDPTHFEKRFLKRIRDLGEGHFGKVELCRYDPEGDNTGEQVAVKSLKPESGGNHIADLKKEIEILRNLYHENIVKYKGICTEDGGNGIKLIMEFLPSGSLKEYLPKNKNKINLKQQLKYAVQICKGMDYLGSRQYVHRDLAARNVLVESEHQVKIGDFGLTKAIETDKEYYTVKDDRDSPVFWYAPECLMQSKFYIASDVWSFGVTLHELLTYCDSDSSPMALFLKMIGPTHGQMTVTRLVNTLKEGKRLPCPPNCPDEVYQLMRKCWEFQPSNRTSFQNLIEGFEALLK
T1 sequence (P08684 whole entry): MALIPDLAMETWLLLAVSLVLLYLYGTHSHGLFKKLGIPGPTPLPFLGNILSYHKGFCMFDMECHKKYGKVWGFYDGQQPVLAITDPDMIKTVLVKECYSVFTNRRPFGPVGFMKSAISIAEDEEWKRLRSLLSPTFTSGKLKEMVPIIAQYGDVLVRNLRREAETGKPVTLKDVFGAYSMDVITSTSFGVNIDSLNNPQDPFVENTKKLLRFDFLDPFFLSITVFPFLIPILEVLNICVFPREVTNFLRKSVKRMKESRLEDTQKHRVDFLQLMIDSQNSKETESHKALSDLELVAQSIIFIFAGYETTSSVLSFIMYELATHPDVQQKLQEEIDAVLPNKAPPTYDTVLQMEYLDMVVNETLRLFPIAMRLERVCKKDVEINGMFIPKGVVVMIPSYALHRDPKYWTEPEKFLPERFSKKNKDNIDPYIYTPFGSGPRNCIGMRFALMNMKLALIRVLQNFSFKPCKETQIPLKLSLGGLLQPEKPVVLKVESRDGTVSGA
T2 sequence (P29597 whole entry): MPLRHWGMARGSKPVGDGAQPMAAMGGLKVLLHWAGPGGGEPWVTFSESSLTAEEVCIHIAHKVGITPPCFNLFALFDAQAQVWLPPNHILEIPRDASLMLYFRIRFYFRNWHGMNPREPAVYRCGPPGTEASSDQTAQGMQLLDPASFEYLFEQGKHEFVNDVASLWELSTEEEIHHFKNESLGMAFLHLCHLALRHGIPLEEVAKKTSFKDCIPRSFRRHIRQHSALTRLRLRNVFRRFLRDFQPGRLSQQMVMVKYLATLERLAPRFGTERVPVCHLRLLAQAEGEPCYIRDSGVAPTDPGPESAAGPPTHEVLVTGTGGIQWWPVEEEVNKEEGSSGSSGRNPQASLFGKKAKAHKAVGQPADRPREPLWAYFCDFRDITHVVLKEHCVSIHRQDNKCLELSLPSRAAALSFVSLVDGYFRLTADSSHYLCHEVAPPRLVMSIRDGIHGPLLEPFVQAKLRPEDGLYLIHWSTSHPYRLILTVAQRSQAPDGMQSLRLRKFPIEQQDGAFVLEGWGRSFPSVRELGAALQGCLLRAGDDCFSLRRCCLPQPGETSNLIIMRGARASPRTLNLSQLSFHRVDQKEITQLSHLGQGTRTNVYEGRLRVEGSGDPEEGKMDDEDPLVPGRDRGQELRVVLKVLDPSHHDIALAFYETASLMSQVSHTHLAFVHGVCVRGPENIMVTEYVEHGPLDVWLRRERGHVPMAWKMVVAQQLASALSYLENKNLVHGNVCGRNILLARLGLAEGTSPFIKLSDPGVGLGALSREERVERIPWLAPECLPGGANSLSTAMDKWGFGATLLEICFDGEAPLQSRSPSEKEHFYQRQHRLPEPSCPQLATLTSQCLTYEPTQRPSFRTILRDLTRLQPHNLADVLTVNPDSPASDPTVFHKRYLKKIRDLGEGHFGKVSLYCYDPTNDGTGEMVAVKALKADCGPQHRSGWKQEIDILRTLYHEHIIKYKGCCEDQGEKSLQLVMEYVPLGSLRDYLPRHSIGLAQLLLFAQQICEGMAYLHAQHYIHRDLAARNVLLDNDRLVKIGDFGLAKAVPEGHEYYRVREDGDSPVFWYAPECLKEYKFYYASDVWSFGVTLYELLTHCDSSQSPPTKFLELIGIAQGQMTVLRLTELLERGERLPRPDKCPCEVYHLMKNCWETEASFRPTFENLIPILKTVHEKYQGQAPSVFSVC

SMILES	inhibition at 0.25 h, 50 µM (CYP3A4 [1]) [%]	Emax at 24 h, 10 µM (CYP3A4 [2]) [%]	fold induction at 24 h, 10 µM (CYP3A4 [3])	EC50 [4] [nM]	CL free [5] [mL/min/kg]	IC50 [6] [nM]	solubility thermodynamic [7] [µM]	EC50 [8] [nM]	also measured
CO[C@@]1(c2cccc(-c3cn(C)c4cnc(NC(C)=O)cc34)n2)CCOC1					80	30	20 (≈ 7.33 µg/mL)		
CO[C@@]1(c2cccc(-c3cn(C)c4cnc(NC(N)=O)cc34)n2)CCOC1				60	41.7	5	16 (≈ 5.88 µg/mL)		
CC(=O)Nc1cc2c(-c3cccc(S(=O)(=O)N(C)C)n3)cn(C)c2cn1				24	132	4	2.4 (≈ 0.896 µg/mL)	3400	
CC(=O)Nc1cc2c(-c3cccc(S(=O)(=O)C4COC4)n3)cn(C)c2cn1				194		35		14000	
COc1cc(-c2cn(C3COC3)c3cnc(NC(C)=O)cc23)nc([C@]2(OC)CCOC2)c1	43	49	13		12.5				
CCS(=O)(=O)c1cccc(-c2cn(C)c3cnc(NC(C)=O)cc23)n1				93	85	9		17700	
CO[C@]1(c2cccc(-c3cn(C)c4cnc(NC(C)=O)cc34)n2)CCOC1				1500	80	60	29 (≈ 10.6 µg/mL)		
CC(=O)Nc1cc2c(-c3cccc(S(=O)(=O)N(C)C)c3)c[nH]c2cn1				120	113	30	1.2 (≈ 0.43 µg/mL)	19700	EC50 [10]: > 19000 nM; EC50 [12]: > 19000 nM; IC50 [15]: 6000 nM; IC50 [16]: 40000 nM; Ratio IC50 [17]: > 200; Ratio IC50 [18]: > 200
CC(=O)Nc1cc2c(-c3cccc(S(=O)(=O)N(C)C)c3)cn(C)c2cn1				20	140	10	3.2 (≈ 1.19 µg/mL)	6800	
CO[C@@]1(c2cc(C#N)cc(-c3cn([C@@H]4CC4(F)F)c4cnc(NC(C)=O)cc34)n2)CCOC1	20	40	13		68.3				
CN(C)S(=O)(=O)c1cccc(-c2c[nH]c3cnc(NC(=O)C4CC4)cc23)c1				540	765	480	< 0.8	36300	

Now from value to molecule, other results behind:

inhibition at 0.25 h, 50 µM (CYP3A4 [1]) [%]	Emax at 24 h, 10 µM (CYP3A4 [2]) [%]	fold induction at 24 h, 10 µM (CYP3A4 [3])	EC50 [4] [nM]	CL free [5] [mL/min/kg]	IC50 [6] [nM]	solubility thermodynamic [7] [µM]	EC50 [8] [nM]	SMILES	also measured
49	23	7.7	40	31.7				CO[C@@]1(c2cc(C(F)F)cc(-c3cn(C)c4cnc(NC(C)=O)cc34)n2)CCOC1	
8	6	2.6	77			105 (≈ 47.7 µg/mL)	> 20000	CO[C@@]1(c2cc(OCC[C@@H](C)O)cc(-c3cn(C)c4cnc(NC(C)=O)cc34)n2)CCOC1	Vd [9]: 19 L/kg; EC50 [10]: > 20000 nM; half-life [11]: 1.1 h; EC50 [12]: > 20000 nM; CL free [13]: 567 mL/min/kg; bioavailability [14]: 26%
6	42	4	30	110				COCCOc1cc(-c2cn(C)c3cnc(NC(C)=O)cc23)nc([C@]2(OC)CCOC2)c1	
				33				CO[C@@]1(c2cc(OCC#N)cc(-c3cn(C)c4cnc(NC(C)=O)cc34)n2)CCOC1	
21	3	1.8		102		190 (≈ 86.4 µg/mL)	> 20000	CO[C@@]1(c2cc(O[C@@H](C)CCO)cc(-c3cn(C)c4cnc(NC(C)=O)cc34)n2)CCOC1	Vd [9]: 2.5 L/kg; EC50 [10]: > 20000 nM; bioavailability [19]: 71%; half-life [11]: 0.5 h; CL free [20]: 78.3 mL/min/kg; EC50 [12]: > 20000 nM; CL free [21]: 30 mL/min/kg; half-life [22]: 1.4 h; CL free [23]: 41.7 mL/min/kg; half-life [24]: 3 h; CL free [13]: 102 mL/min/kg; bioavailability [14]: 16%; AUC(0-inf) [25]: 300 ng·h/mL; CL free [26]: 107 mL/min/kg
53	64	6		102				CO[C@@]1(c2cc(OC(F)F)cc(-c3cn(C)c4cnc(NC(C)=O)cc34)n2)CCOC1	

Source: ChEMBL document CHEMBL5370619, “Targeting the Tyrosine Kinase 2 (TYK2) Pseudokinase Domain: Discovery of the Selective TYK2 Inhibitor ABBV-712” (J Med Chem, 2023)
